In US20040175401A1, “Enhanced parmacokinetic profile of hydrophobic substances” (priority 2001, published 2004):
Where two headings read alike, the source gives them in different places.

Tests used:
[1] = n-octanol/water partition coefficient LogPoct calculated from solubility data; conditions: calculated as logPoct = (0.99 - logSw)/1.34
Excerpt: where logSw is the molar solubility and logPoct is the water-oil partition coefficient. Using this equation, values for logPoct can be calculated from solubility data.

[2] = molar aqueous solubility, log value; cited from earlier work
[3] = for AUC(0-∞) / Cmax / T1/2 / Tmax: mean, n = 6
Method: Six Yucatan mini-pigs weighing 20-25 kg were used. […] A total of 6 animals were utilized in a full crossover design where each animal received a 1.0 mg dose by all administration routes in an injection volume of 0.1 mL.
The intravenous dose was administered an ear vein catheter. Subcutaneous delivery was through a standard 0.5 inch, 30 gauge needle. Delivery to the dermis was through a three point microneedle array having three 34 gauge needles with 7 mm spacing and 1 mm depth to right flank of the animal between the rib cage and the rear leg. Subcutaneous and intravenous administration was by manual injection seconds. Administration to the dermis was at a rate of 90 μL/min by a syringe pump.
The study design was a full crossover with each animal receiving intravenous, subcutaneous and dermal administration. Each animal received three treatments over a two-week period with a minimal washout period of 2 days between subsequent doses. Dosing was according to the schedule shown below in Table 2.
Blood samples were obtained from the vena cava access port immediately before dosing and at 5, 10, 15, 20, 30, 45, 60 minutes and 2, 3, 4, 6, 8, 10, 14 and 24 hours after administration. Timing was started at the cessation of injection for a given method. The venous samples were collected into EDTA containing Vacutainer tubes, centrifuged at approximately 1000 g for 10 minutes at 4° C. After centrifugation, the plasma layer was transferred to plastic storage vials and stored frozen at −70° C. until assayed.
Assay of the pig plasma samples was performed by HPLC analysis. Results are shown below in Tables 3
Pharmacokinetic parameters were estimated using Watson Drug Metabolism Laboratory Information Management System, version 6.2.0.02 (Innaphase Corp., Philadelphia, Pa.). Parameters determined were the maximal plasma concentration, Cmax, time to maximal plasma concentration Tmax, area under the curve estimated to t=infinity, Tmax and the half-life for decrease in plasma concentration, T1/2.

SMILES: CCCCCCCC(=O)OCN1C(=O)NC(c2ccccc2)(c2ccccc2)C1=O [3-octanoloxymethyl-5,5-diphenylhydantoin]
- LogPoct [1]: 5.60
- LogSw [2]: −6.52 moles/L

SMILES: CCCCC(=O)OCN1C(=O)NC(c2ccccc2)(c2ccccc2)C1=O [3-pentanoyloxymethyl-5,5-diphenylhydantoin]
- LogSw [2]: −4.68 moles/L

SMILES: O=C1NC(=O)C2(CC2)C(=O)N1 [5,5-(CH2)2-barbituric acid]
- LogPoct [1]: 2.15

SMILES: O=C1NC(=O)C2(CCC2)C(=O)N1 [5,5-(CH2)3-barbituricacid]
- LogPoct [1]: 1.98

SMILES: O=C1NC(=O)C2(CCCC2)C(=O)N1 [5,5-(CH2)4-barbituric acid]
- LogPoct [1]: 3.97

SMILES: O=C1NC(=S)NC(=O)C12CCCCC2 [5,5-(CH2)5-2-thiobarbituric acid]
- LogPoct [1]: 3.32
- LogSw [2]: −3.46 moles/L

SMILES: O=C1NC(=O)C2(CCCCC2)C(=O)N1 [5,5-(CH2)5-barbituric acid]
- LogPoct [1]: 3.02

SMILES: O=C1NC(=O)C2(CCCCCCC2)C(=O)N1 [5,5-(CH2)7-barbituric acid]
- LogPoct [1]: 2.96

SMILES: O=C1NC(=O)C2(CCCCCCCCCC2)C(=O)N1 [5,5-(CH2)10-barbituric acid]
- LogPoct [1]: 4.16
- LogSw [2]: −4.59 moles/L

SMILES: O=C1NC(=O)C2(CCCCCCCCCCC2)C(=O)N1 [5,5-(CH2)11-barbituric acid]
- LogPoct [1]: 5.07
- LogSw [2]: −5.80 moles/L

SMILES: CC(C)C1(C(C)C)C(=O)NC(=O)NC1=O [5,5-di-iPr-barbituric acid]
- LogPoct [1]: 2.81

SMILES: O=C1NC(=O)C(c2ccccc2)(c2ccccc2)N1 [5,5-diphenyhlhydantoin]
- LogPoct [1]: 3.80
- LogSw [2]: −4.10 moles/L

SMILES: O=C1NC(=O)C(c2ccccc2)(c2ccccc2)C(=O)N1 [5,5-diphenylbarbituric acid]
- LogPoct [1]: 3.87

SMILES: CCCC(C)C1(CC)C(=O)NC(=S)NC1=O (stereo not shown) [5-Et-5-(1-methylbutyl)-2-thiobarbituric acid]
- LogPoct [1]: 3.49
- LogSw [2]: −3.68 moles/L

SMILES: CCC1(CC=C(C)C)C(=O)NC(=O)NC1=O [5-Et-5-(3-methylbut-2-enyl)-barbituric acid]
- LogPoct [1]: 2.42

SMILES: C=CCC1(CC)C(=O)NC(=O)NC1=O [5-Et-5-allyl-barbituric acid]
- LogPoct [1]: 1.64
- LogSw [2]: −1.61 moles/L

SMILES: C=CCC1(C)C(=O)NC(=O)NC1=O [5-Me-5-allylbartituric acid]
- LogPoct [1]: 1.60

SMILES: CCC1(CC)C(=O)NC(=S)NC1=O [5-diethyl-2-thiobarbituric acid]
- LogPoct [1]: 2.36

SMILES: C=CCC1(C(C)C)C(=O)NC(=O)NC1=O [5-iPr-5-allyl-barbituric acid]
- LogSw [2]: −1.71 moles/L

SMILES: CC(C)=CCC1(C(C)(C)C)C(=O)NC(=O)NC1=O [5-tBu-5-(3-methylbut-2-enyl)-barbituric acid]
- LogPoct [1]: 3.39

SMILES: CN[C@@H]1Cc2cccc3[nH]c(=S)n(c23)C1 [(R)-5,6-dihydro-5-(methylamino)-4H-imidazo[4,5-ij]-quinoline-2(1H)-thione]
- Plasma Concentration, Mean ([3]; ID (dermis), 1.0 mg dose, 5 min): 24.8 ng/mL
- Plasma Concentration, Mean ([3]; ID (dermis), 1.0 mg dose, 10 min): 22.5 ng/mL
- Plasma Concentration, Mean ([3]; ID (dermis), 1.0 mg dose, 15 min): 16.4 ng/mL
- Plasma Concentration, Mean ([3]; ID (dermis), 1.0 mg dose, 20 min): 18.0 ng/mL
- Plasma Concentration, Mean ([3]; ID (dermis), 1.0 mg dose, 30 min): 14.0 ng/mL
- Plasma Concentration, Mean ([3]; ID (dermis), 1.0 mg dose, 45 min): 9.9 ng/mL
- Plasma Concentration, Mean ([3]; ID (dermis), 1.0 mg dose, 1 hr): 9.0 ng/mL
- Plasma Concentration, Mean ([3]; ID (dermis), 1.0 mg dose, 2 hr): 5.7 ng/mL
- Plasma Concentration, Mean ([3]; ID (dermis), 1.0 mg dose, 3 hr): 4.2 ng/mL
- Plasma Concentration, Mean ([3]; ID (dermis), 1.0 mg dose, 4 hr): 3.6 ng/mL
- Plasma Concentration, Mean ([3]; ID (dermis), 1.0 mg dose, 6 hr): 0.4 ng/mL
- Plasma Concentration, Mean ([3]; ID (dermis), 1.0 mg dose, 8 hr): 0 ng/mL
- Plasma Concentration, Mean ([3]; ID (dermis), 1.0 mg dose, 10 hr): 0 ng/mL
- Plasma Concentration, Mean ([3]; ID (dermis), 1.0 mg dose, 14 hr): 0 ng/mL
- Plasma Concentration, Mean ([3]; ID (dermis), 1.0 mg dose, 24 hr): 0 ng/mL
- AUC(0-∞) ([3]; ID (dermis), 1.0 mg dose): 33.6 ng·h/mL
- Cmax ([3]; ID (dermis), 1.0 mg dose): 26.7 ng/mL
- T1/2 ([3]; ID (dermis), 1.0 mg dose): 1.61 h
- Tmax ([3]; ID (dermis), 1.0 mg dose): 8.34 min
- Heterogeneity of Regression analysis of plasma values, dermis versus intravenous administration ([3]; ID versus IV, both different from SC): not different from each other
- Cmax values following administration to the dermis compared with subcutaneous administration ([3]; ID versus SC, 1.0 mg dose): consistently greater
- Plasma levels of drug after administration into the dermis compared with subcutaneous administration ([3]; ID versus SC, 1.0 mg dose): higher plasma levels
- Tmax values following administration to the dermis compared with subcutaneous administration ([3]; ID versus SC, 1.0 mg dose): consistently lesser
- Plasma Concentration, Mean ([3]; IV, 1.0 mg dose, 5 min): 29.8 ng/mL
- Plasma Concentration, Mean ([3]; IV, 1.0 mg dose, 10 min): 20.5 ng/mL
- Plasma Concentration, Mean ([3]; IV, 1.0 mg dose, 15 min): 18.5 ng/mL
- Plasma Concentration, Mean ([3]; IV, 1.0 mg dose, 20 min): 15.3 ng/mL
- Plasma Concentration, Mean ([3]; IV, 1.0 mg dose, 30 min): 13.1 ng/mL
- Plasma Concentration, Mean ([3]; IV, 1.0 mg dose, 45 min): 10.7 ng/mL
- Plasma Concentration, Mean ([3]; IV, 1.0 mg dose, 1 hr): 9.1 ng/mL
- Plasma Concentration, Mean ([3]; IV, 1.0 mg dose, 2 hr): 6.7 ng/mL
- Plasma Concentration, Mean ([3]; IV, 1.0 mg dose, 3 hr): 2.8 ng/mL
- Plasma Concentration, Mean ([3]; IV, 1.0 mg dose, 4 hr): 1.6 ng/mL
- Plasma Concentration, Mean ([3]; IV, 1.0 mg dose, 6 hr): 2.6 ng/mL
- Plasma Concentration, Mean ([3]; IV, 1.0 mg dose, 8 hr): 0 ng/mL
- Plasma Concentration, Mean ([3]; IV, 1.0 mg dose, 10 hr): 0 ng/mL
- Plasma Concentration, Mean ([3]; IV, 1.0 mg dose, 14 hr): 0 ng/mL
- Plasma Concentration, Mean ([3]; IV, 1.0 mg dose, 24 hr): 0 ng/mL
- AUC(0-∞) ([3]; IV, 1.0 mg dose): 32.4 ng·h/mL
- Cmax ([3]; IV, 1.0 mg dose): 29.8 ng/mL
- T1/2 ([3]; IV, 1.0 mg dose): 1.45 h
- Tmax ([3]; IV, 1.0 mg dose): 4.98 min
- Plasma Concentration, Mean ([3]; SC, 1.0 mg dose, 5 min): 10.0 ng/mL
- Plasma Concentration, Mean ([3]; SC, 1.0 mg dose, 10 min): 15.3 ng/mL
- Plasma Concentration, Mean ([3]; SC, 1.0 mg dose, 15 min): 16.0 ng/mL
- Plasma Concentration, Mean ([3]; SC, 1.0 mg dose, 20 min): 14.5 ng/mL
- Plasma Concentration, Mean ([3]; SC, 1.0 mg dose, 30 min): 14.0 ng/mL
- Plasma Concentration, Mean ([3]; SC, 1.0 mg dose, 45 min): 9.9 ng/mL
- Plasma Concentration, Mean ([3]; SC, 1.0 mg dose, 1 hr): 8.9 ng/mL
- Plasma Concentration, Mean ([3]; SC, 1.0 mg dose, 2 hr): 5.6 ng/mL
- Plasma Concentration, Mean ([3]; SC, 1.0 mg dose, 3 hr): 4.1 ng/mL
- Plasma Concentration, Mean ([3]; SC, 1.0 mg dose, 4 hr): 2.2 ng/mL
- Plasma Concentration, Mean ([3]; SC, 1.0 mg dose, 6 hr): 1.6 ng/mL
- Plasma Concentration, Mean ([3]; SC, 1.0 mg dose, 8 hr): 0.6 ng/mL
- Plasma Concentration, Mean ([3]; SC, 1.0 mg dose, 10 hr): 0 ng/mL
- Plasma Concentration, Mean ([3]; SC, 1.0 mg dose, 14 hr): 0 ng/mL
- Plasma Concentration, Mean ([3]; SC, 1.0 mg dose, 24 hr): 0 ng/mL
- AUC(0-∞) ([3]; SC, 1.0 mg dose): 32.1 ng·h/mL
- Cmax ([3]; SC, 1.0 mg dose): 16.9 ng/mL
- T1/2 ([3]; SC, 1.0 mg dose): 1.5 h
- Tmax ([3]; SC, 1.0 mg dose): 13.3 min

SMILES: COc1ccc(-c2cc(=S)ss2)cc1 [Anethole trithione]
- LogPoct [1]: 5.07

SMILES: O=c1[nH]cnc2c1ncn2[C@H]1CC[C@@H](CO)O1 [Didanosine]
- LogSw [2]: −0.90 moles/L

SMILES: CC(=O)Nc1nc2c(ncn2COCCO)c(=O)[nH]1 [N2-acetylacyclovir]
- LogPoct [1]: 2.17

SMILES: CC(=O)/C=C/C1C(C)=CCCC1(C)C (stereo not shown) [a-ionone]
- LogSw [2]: −3.06 moles/L

SMILES: S=c1ccss1 [dithiolethione]
- LogPoct [1]: 2.59

SMILES: C=C(C)[C@H]1CC=C(C)CC1 [limonene]
- LogSw [2]: −3.41 moles/L
